In patent US10780094B2, “Use of carbonic anhydrase inhibitors for treatment of neurological and psychiatric disorders” (New York University, priority 2016, dated 2020):

How the values were obtained:
TgSwDI mice [1] = assay: Brain immunostaining and Thioflavin S staining in a model of vascular and parenchymal amyloidosis; type: in vivo, mouse; details: for Aβ and GFAP staining, dentate gyrus (hippocampus) / GFAP and Aβ staining and their colocalization, cortex / co-localization of Aβ staining with glial cells, dentate gyrus / gliosis and amyloidosis, thalamic region: 16 month-old mice treated for 8 months; for amyloid deposits in the cortex and thalamic region (Thioflavin S) / hippocampal deposition of Amyloid beta (Thioflavin S) / amyloid load in the brain (Thioflavin S): 16 months old, diet 8 months; for amyloid load in the brain (Thioflavin S): 15-20 mg/kg/day
Method: The animals were sacrificed by trans-cardiac perfusion (medium flow pump, Fisher Scientific 13-876-2, 10 ml/min flow rate) with PBS for 2 minutes followed by 4% paraphormaldehyde for 5 minutes. Brains were then removed from the skull and postfixed in 4% paraphormaldehyde for 2 h at 4° C. […] Brains were then washed in PBS, assembled in a plastic mold with Tissue-Tek O.C.T. compound (Fisher Scientific), and frozen with a mixture of liquid nitrogen and isopenthanol. Serial cryostat sections of 8 μm thickness were collected on positively charged microscope slides (Fisher Scientific) and stored at −80° C. until further immunohistochemical analysis.
For immunohistochemical staining, slices were warmed to RT for 5′ prior to use, rinsed in PBS and blocked with Mouse on Mouse (MOM) blocking reagent (2 drops in 2.5 ml of PBS, Vector Laboratories, Burlingame, Calif.) for 20 minutes. Incubation with the rabbit monoclonal antibody against active caspase-3 (Cell Signaling Technology) was performed overnight at 4° C. in PBS containing 0.1% triton X-100 and 5 mg/ml BSA. The day after, the sections were washed three times with PBS and incubated in Alexa Fluor 488- or 633-conjugated anti-rabbit IgG (Life Technologies; 1:200 in PBST with 5 mg/ml BSA; 1 h at RT), followed by primary anti-Aβ 6E10 (1:200 in PBS+MOM for 2 hours at RT), and by secondary Alexa Fluor 568 anti-mouse IgG. Finally, the slices were washed and the DNA counterstained with TO-PRO (Life Technologies) 1:1000 for 10 min, or with NeuN green neuronal staining (1:100 in PBS for 1 hour, Millipore, Temecula, Calif.). For staining of active microglial cells, tissue sections were incubated with anti IBA1 goat antibody (Abcam, Cambridge, Mass.) 1:200 in PBS containing 0.1% Triton and 5 mg/ml BSA for 1 hour, followed by Alexa Fluor 488 anti-goat IgG (1 hour). For astrocytes, brain slices were stained with GFAP antibody (Fisher Scientific 1:200).
Total fibrillar Aβ burden (parenchymal and vascular) and CAA burden (Aβ burden in the vasculature) were evaluated separately in sections stained with Thioflavin-S, using methods described previously (Scholtzova et al., J Neurosci 2009, 29: 1846-1854).
After washing, slides were mounted with an aqueous mounting medium (Vector Laboratories). Images were acquired in a Zeiss LSM 510 confocal microscope using 40× or 100× oil lens and processed using Image J and Adobe Photoshop. Images were acquired maintaining constant exposure for all samples across single experiments. For quantifications, stained brain slices corresponding to the injection site area of 3 or more animals were quantified with Image J. The total area of NeuN, caspase 3, Aβ and IBA1 positive cells was quantified and compared between different treatments.

caspase 9 in D3 cells = assay: Caspase-Glo 9 activity after Aβ challenge; type: cell-based, human; details: Example 2/3; FIG. 16D, 22
Method: Cells were plated at a confluence of 10.000 cells per well in 96-wells microplate luminescence microtiter (ThermoFisher, Waltham, Mass., US). The day after, cells were treated with the peptides and/or drugs for the experimental times. After that, caspase-Glo 9 assay was performed, following the protocol provided from the manufacturer. Luminescence was measured using a FlexStation 3 Multi-Mode Microplate Reader (Molecular devices, Sunnyvalem Calif., US).

mitochondrial CA = details: reference (16); cited from earlier work
TgSwDI mice [2] = assay: Barnes Maze spatial memory testing; type: in vivo, mouse; details: for behavioral phenotypes (Barnes maze): given with diet; for distance traveled, probe trial / mistakes, probe trial: in the diet for 8 months, 15-20 mg/kg/day; for distance traveled, probe trial / mistakes, probe trial / distance traveled in trial 10 (last trial): tested at 15-16 months; for distance traveled in trial 10 (last trial): treated for 8 months
Excerpt: The Barnes Maze was used to provide an index of spatial learning and memory. The task capitalizes on the motivation of mice to seek refuge from loud, open and brightly-lit spaces. Mice were trained across a series of trials to successfully navigate to a hidden escape chamber using information provided by distal spatial cues. The Barnes Maze consists of a relatively large (36″ in diameter), circular platform with a beige textured surface that is elevated 36″ from the floor (San Diego Instruments, San Diego USA). The platform has twenty 2″ diameter holes that are equally spaced around the periphery of the platform (1″ from the edge). A grey plastic escape box (˜10 cm×8.5 cm×4 cm) is located under only one of the holes, the location of which is constant for each subject but variable across subjects and counterbalanced across groups. The surface of the Barnes maze is brightly-lit (500-600 lux), illuminated by an overhead lamp (60-100 W) placed approximated 30″ above the center of the platform. Visible distal cues were placed around the room and remained constant throughout the testing period. An overhead video camera and specialized software (Noldus Ethovision 11.5) was used to track the locomotor trajectories of the mice. Mice were trained for six consecutive daily testing sessions (2 trials/day for 5 days, and probe test on day 6).
On each testing day, mice were brought to the testing room for a minimum of 30 mins prior to testing in order to acclimate to transport and testing room conditions. On the first day of testing, each mouse was gently removed from its home cage by the base of its tail and placed in the center of the platform and kept within an inverted 500 ml beaker for 1 min. A white noise generator (San Diego Instruments) was turned on (˜90-100 dB) when the mouse was placed onto the maze. After the 1-min period, the beaker was slowly moved (over the course of 1 min) to the target hole with the mouse freely moving but confined underneath. Care was taken not to catch the tail or paws of the mouse while moving the beaker. The mouse was then permitted, or was gently guided by the experimenter using the beaker, to enter the escape box and was given 2 min inside before being transported back to its home cage within the escape box. The white noise was turned off as soon as the mouse entered the escape box. The platform and start box were cleaned thoroughly with 30% ethanol and allowed to dry fully before each trial. To ensure that distal spatial cues rather than local intramaze cues were being used to help guide navigation to the escape box, the maze was rotated after each training trial and the escape box re-positioned to always be in the identical spatial location within the room.
After the initial beaker trial, each mouse was given 2 training trials per day. During training trials, mice were placed in the center of the platform within an plastic 6″l×6″w×8″h start box. The white noise generator was turned on and, after 10-15 s delay, the start box was lifted. The mouse was permitted a maximum of 3 min to find the designated hole and escape box. When a mouse entered the escape box the white noise was turned off and they were given approximately 1 additional min inside the box before being transferred back to the home cage. […] A 90-120 min inter-trial interval separated the two training trials on each daily session.
Twenty four hours after (Day 6) the fifth training session, a 3-min probe trial was given, conducted identically as the training trials but where the escape box had been removed. This probe was used to examine search behavior patterns and to help control for possible strategies that use local cues from the escape box.
Spatial learning and memory was inferred based on the latency, distance and number of errors (other holes visited) that was required for the mouse to successfully navigate to the escape box. […]

[3] = drugs in diet from 5-6 months of age, sacrificed at 9 months

| SMILES | Aβ and GFAP staining, dentate gyrus (hippocampus) (TgSwDI mice [1]) | GFAP and Aβ staining and their colocalization, cortex (TgSwDI mice [1]) | co-localization of Aβ staining with glial cells, dentate gyrus (TgSwDI mice [1]) | gliosis and amyloidosis, thalamic region (TgSwDI mice [1]) | amyloid deposits in the cortex and thalamic region (Thioflavin S) (TgSwDI mice [1]) | hippocampal deposition of Amyloid beta (Thioflavin S) (TgSwDI mice [1]) | amyloid load in the brain (Thioflavin S) (TgSwDI mice [1]) | increase in caspase 3 activation induced by Aβ, hippocampus (TgSwDI mice [1]; [3]) | caspase 9 activation (caspase 9 in D3 cells) | activity on mitochondrial CA (mitochondrial CA) | behavioral phenotypes (Barnes maze) (TgSwDI mice [2]) | distance traveled, probe trial (TgSwDI mice [2]) | mistakes, probe trial (TgSwDI mice [2]) | distance traveled in trial 10 (last trial) (TgSwDI mice [2]) | Aβ deposition, hippocampus (TgSwDI mice [1]; [3]) |
| --- | --- | --- | --- | --- | --- | --- | --- | --- | --- | --- | --- | --- | --- | --- | --- |
| CC(=O)Nc1nnc(S(N)(=O)=O)s1 [ATZ, acetazolamide] | both Aβ and GFAP were reduced | significant reduction | not co-localized within glial cells | decreased gliosis (green) and amyloidosis (red) | reduced deposition | decrease | reduced | inhibited | protective effect | high activity | ameliorate behavioral phenotypes | not significantly higher than WT mice | not significantly higher than WT mice | not significantly higher than WT mice |  |
| CC(=O)/N=c1/sc(S(N)(=O)=O)nn1C [MTZ, methazolamide] | both Aβ and GFAP were reduced | significant reduction | not co-localized within glial cells | decreased gliosis (green) and amyloidosis (red) | reduced deposition | decrease | reduced | inhibited | protective effect | high activity | ameliorate behavioral phenotypes | not significantly higher than WT mice | not significantly higher than WT mice | not significantly higher than WT mice | reduction in Aβ deposition |
